US7728146B2, “Enzyme inhibitors” (Probiodrug AG, priority 2006, dated 2010)

The molecules below were run against DP IV (Homo sapiens, UniProt P27487) (assay: DP IV inhibition IC50, parallel-synthesis compounds tested directly following synthesis (without purification)). Details: DP IV inhibition; compounds of formula (Ib) from parallel synthesis, tested directly following synthesis (without purification); read-out: IC50.
Assay type: biochemical
Set-up: IC50 DP4; other: tested directly following parallel synthesis, without purification; compounds of formula (Ib) from parallel synthesis, tested directly following synthesis
Summary of the method: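 IC50 came from a 4-parameter fit of residual activity (linear 405 nm slopes for pNA release over ~18 min, relative to solvent-only wells). Gly-Pro-pNA was the substrate, cleaved by porcine kidney or recombinant human DP IV at room temperature in HEPES with 5% DMSO; duplicate 1:2 series started at 100 μM final.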

Row | SMILES | IC50 [µM]
1 | NCc1c(-c2ccc(Cl)cc2Cl)ncn1Cc1ccccc1C(F)(F)F [108b, C-[5-(2,4-Dichloro-phenyl)-3-(2-trifluoromethyl-benzyl)-3H-imidazol-4-yl]-methylamine] | 5.5
2 | NCc1c(-c2ccc(Cl)cc2Cl)ncn1CCNC1CCCCC1 [4b, {2-[5-Aminomethyl-4-(2,4-dichloro-phenyl)-imidazol-1-yl]-ethyl}-cyclohexyl-amine] | 10
3 | NCc1c(-c2ccc(Cl)cc2Cl)ncn1Cc1ccc(OC(F)(F)F)cc1 [97b, C-[5-(2,4-Dichloro-phenyl)-3-(4-trifluoromethoxy-benzyl)-3H-imidazol-4-yl]-methylamine] | 2.8
4 | NCc1c(-c2ccc(Cl)cc2Cl)ncn1CCC(c1ccccc1)c1ccccc1 [53b, C-[5-(2,4-Dichloro-phenyl)-3-(3,3-diphenyl-propyl)-3H-imidazol-4-yl]-methylamine] | 18.1
5 | CC(N)c1c(-c2ccc(Cl)cc2Cl)ncn1Cc1ccccc1Cl (stereo not shown) [67b, 1-[3-(2-Chloro-benzyl)-5-(2,4-dichloro-phenyl)-3H-imidazol-4-yl]-ethylamine] | 28.9
6 | NCc1c(-c2ccc(Cl)cc2Cl)ncn1Cc1ccc(F)c(F)c1 [Example 92b, C-[5-(2,4-dichloro-phenyl)-3-(3,4-difluoro-benzyl)-3H-imidazol-4-yl]-methylamine] | 1
7 | CC(N)c1c(-c2ccc(Cl)cc2Cl)ncn1Cc1cccnc1 (stereo not shown) [78b, 1-[5-(2,4-Dichloro-phenyl)-3-pyridin-3-ylmethyl-3H-imidazol-4-yl]-ethylamine] | 28
8 | NCc1c(-c2ccc(Cl)cc2Cl)ncn1Cc1ccc(Cl)cc1Cl [93b, C-[3-(2,4-Dichloro-benzyl)-5-(2,4-dichloro-phenyl)-3H-imidazol-4-yl]-methylamine] | 35.2
9 | C[C@H](N)c1c(-c2ccc(Cl)cc2Cl)ncn1CCc1c[nH]c2cc(Cl)ccc12 [101b, (S)-1-[3-[2-(6-Chloro-1H-indol-3-yl)-ethyl]-5-(2,4-dichloro-phenyl)-3H-imidazol-4-yl]-ethylamine] | 47.8
10 | NCc1c(-c2ccc(Cl)cc2Cl)ncn1CCN1CCCC1 [26b, C-[5-(2,4-Dichloro-phenyl)-3-(2-pyrrolidin-1-yl-ethyl)-3H-imidazol-4-yl]-methylamine] | 40.6
11 | Cc1ccc(Cn2cnc(-c3ccc(Cl)cc3Cl)c2CN)cc1 [66b, C-[5-(2,4-Dichloro-phenyl)-3-(4-methyl-benzyl)-3H-imidazol-4-yl]-methylamine] | 11.8
12 | CC(N)c1c(-c2ccc(Cl)cc2Cl)ncn1CCCc1ccccc1 (stereo not shown) [70b, 1-[5-(2,4-Dichloro-phenyl)-3-(3-phenyl-propyl)-3H-imidazol-4-yl]-ethylamine] | 41.5
13 | COc1ccc(Cn2cnc(-c3ccc(Cl)cc3Cl)c2[C@H](C)N)c(OC)c1 [62b, (S)-1-[5-(2,4-Dichloro-phenyl)-3-(2,4-dimethoxy-benzyl)-3H-imidazol-4-yl]-ethylamine] | 10
14 | NCc1c(-c2ccc(Cl)cc2Cl)ncn1CCCCCCO [16b, 6-[5-Aminomethyl-4-(2,4-dichloro-phenyl)-imidazol-1-yl]-hexan-1-ol] | 12.7
15 | CC(C)CCCCCCn1cnc(-c2ccc(Cl)cc2Cl)c1CN [99b, C-[5-(2,4-Dichloro-phenyl)-3-(7-methyl-octyl)-3H-imidazol-4-yl]-methylamine] | 4.6
16 | CC(N)c1c(-c2ccc(Cl)cc2Cl)ncn1CCC1=CCCCC1 (stereo not shown) [71b, 1-[3-(2-Cyclohex-1-enyl-ethyl)-5-(2,4-dichloro-phenyl)-3H-imidazol-4-yl]-ethylamine] | 35.2
17 | NCCCc1c(-c2ccc(Cl)cc2Cl)ncn1CCc1c[nH]c2cc(Cl)ccc12 [105b, 3-[3-[2-(6-Chloro-1H-indol-3-yl)-ethyl]-5-(2,4-dichloro-phenyl)-3H-imidazol-4-yl]-propylamine] | 37.9
18 | CC(N)c1c(-c2ccc(Cl)cc2Cl)ncn1CCc1ccccn1 (stereo not shown) [73b, 1-[5-(2,4-Dichloro-phenyl)-3-(2-pyridin-2-yl-ethyl)-3H-imidazol-4-yl]-ethylamine] | 38.8
19 | NCc1c(-c2ccc(Cl)cc2Cl)ncn1Cc1cc(Br)ccc1F [124b, C-[3-(5-Bromo-2-fluoro-benzyl)-5-(2,4-dichloro-phenyl)-3H-imidazol-4-yl]-methylamine] | 34.3
20 | Clc1ccc(-c2ncn(CCc3ccccc3Cl)c2C2CNC2)c(Cl)c1 [117b, 5-Azetidin-3-yl-1-[2-(2-chloro-phenyl)-ethyl]-4-(2,4-dichloro-phenyl)-1H-imidazole] | 39.7
21 | CC(N)c1c(-c2ccc(Cl)cc2Cl)ncn1Cc1cc(F)ccc1F (stereo not shown) [36b, 1-[5-(2,4-Dichloro-phenyl)-3-(2,5-difluoro-benzyl)-3H-imidazol-4-yl]-ethylamine] | 25.3
22 | COc1ccc(Cn2cnc(-c3ccc(Cl)cc3Cl)c2C(C)N)cc1OC (stereo not shown) [95b, 1-[5-(2,4-Dichloro-phenyl)-3-(3,4-dimethoxy-benzyl)-3H-imidazol-4-yl]-ethylamine] | 19.9
23 | NCc1c(-c2ccc(Cl)cc2Cl)ncn1Cc1c(F)cccc1F [40b, C-[5-(2,4-Dichloro-phenyl)-3-(2,6-difluoro-benzyl)-3H-imidazol-4-yl]-methylamine] | 10.9
24 | COc1ccc(Cn2cnc(-c3ccc(Cl)cc3Cl)c2C(C)N)cc1 (stereo not shown) [43b, 1-[5-(2,4-Dichloro-phenyl)-3-(4-methoxy-benzyl)-3H-imidazol-4-yl]-ethylamine] | 27.1
25 | NCc1c(-c2ccc(Cl)cc2Cl)ncn1CCNc1ccccc1 [41b, {2-[5-Aminomethyl-4-(2,4-dichloro-phenyl)-imidazol-1-yl]-ethyl}-phenyl-amine] | 32.5
26 | COCCn1cnc(-c2ccc(Cl)cc2Cl)c1CN [60b, C-[5-(2,4-Dichloro-phenyl)-3-(2-methoxy-ethyl)-3H-imidazol-4-yl]-methylamine] | 20.8
27 | NCc1c(-c2ccc(Cl)cc2Cl)ncn1CCCN1CCCC1=O [29b, 1-{3-[5-Aminomethyl-4-(2,4-dichloro-phenyl)-imidazol-1-yl]-propyl}-pyrrolidin-2-one] | 22.6
28 | NCc1c(-c2ccc(Cl)cc2Cl)ncn1Cc1ccc(Cl)cc1 [82b, C-[3-(4-Chloro-benzyl)-5-(2,4-dichloro-phenyl)-3H-imidazol-4-yl]-methylamine] | 15.4

Same assay, conditions: tested directly following parallel synthesis, without purification; read-out: IC50 DP4

Row | SMILES | IC50 [µM]
29 | NCc1c(-c2ccc(F)cc2F)ncn1Cc1ccccc1OC(F)(F)F [Example 84a, C-[5-(2,4-Difluoro-phenyl)-3-(2-trifluoromethoxy-benzyl)-3H-imidazol-4-yl]-methylamine] | 9.1
30 | NCc1c(-c2ccc(Cl)cc2Cl)ncn1Cc1c(F)cccc1Cl [Example 45a, C-[3-(2-Chloro-6-fluoro-benzyl)-5-(2,4-dichloro-phenyl)-3H-imid-azol-4-yl]-methyl-amine] | 1.9
31 | NCc1c(-c2ccc(Cl)cc2Cl)ncn1Cc1ccc2c(c1)OCO2 [Example 48a, C-[3-Ben-zo[1,3]di-oxol-5-yl-methyl-5-(2,4-dichloro-phenyl)-3H-imid-azol-4-yl]-methyl-amine] | 0.1
32 | NCc1c(-c2ccc(F)cc2Cl)ncn1Cc1ccco1 [Example 2a, C-[5-(2-Chloro-4-fluoro-phenyl)-3-furan-2-yl-methyl-3H-imid-azol-4-yl]-methyl-amine] | 16.3
33 | NCc1c(-c2ccc(Cl)cc2Cl)ncn1Cc1ccc(Cl)cc1Cl [Example 57a, C-[3-(2,4-Dichloro-benzyl)-5-(2,4-dichloro-phenyl)-3H-imid-azol-4-yl]-methyl-amine] | 9.1
34 | NCc1c(-c2ccc(F)cc2F)ncn1Cc1ccccc1Cl [Example 73a, C-[3-(2-Chloro-benzyl)-5-(2,4-difluoro-phenyl)-3H-imid-azol-4-yl]-methyl-amine] | 27.1
35 | COc1cccc(Cn2cnc(-c3ccc(F)cc3F)c2CN)c1 [Example 77a, C-[5-(2,4-Difluoro-phenyl)-3-(3-methoxy-benzyl)-3H-imid-azol-4-yl]-methyl-amine] | 24.4
36 | NCc1c(-c2ccc(Cl)cc2Cl)ncn1Cc1ccc(F)cc1 [Example 36a, C-[5-(2,4-Dichloro-phenyl)-3-(4-fluoro-benzyl)-3H-imid-azol-4-yl]-methyl-amine] | 0.1
37 | NCc1c(-c2ccc(F)cc2F)ncn1Cc1ccccc1F [Example 86a, C-[5-(2,4-Difluoro-phenyl)-3-(2-fluoro-benzyl)-3H-imid-azol-4-yl]-methyl-amine] | 32.5
38 | NCc1c(-c2ccc(Cl)cc2Cl)ncn1Cc1ccco1 [Example 33a, C-[5-(2,4-Dichloro-phenyl)-3-furan-2-ylmethyl-3H-imidazol-4-yl]-methylamine] | 0.1
39 | NCc1c(-c2ccc(F)cc2F)ncn1Cc1cc(F)ccc1F [Example 85a, C-[3-(2,5-Difluoro-benzyl)-5-(2,4-difluoro-phenyl)-3H-imid-azol-4-yl]-methyl-amine] | 36.1
40 | NCc1c(-c2ccc(Cl)cc2Cl)ncn1Cc1ccccc1C(F)(F)F [Example 51a, C-[5-(2,4-Dichloro-phenyl)-3-(2-tri-fluoromethyl-benzyl)-3H-imid-dazol-4-yl]-methyl-amine] | 3.7
41 | COc1ccc(-c2ncn(Cc3cc(Br)ccc3F)c2CN)c(C)c1 [Example 71a, C-[3-(5-Bro-mo-2-fluoro-benzyl)-5-(4-meth-oxy-2-methyl-phenyl)-3H-imid-azol-4-yl]-methyl-amine] | 30.7
42 | NCc1c(-c2ccc(Cl)cc2Cl)ncn1Cc1c(F)cccc1F [Example 37a, C-[5-(2,4-Dichloro-phenyl)-3-(2,6-difluoro-benzyl)-3H-imid-azol-4-yl]-methyl-amine] | 4.6
43 | NCc1c(-c2ccc(Cl)cc2Cl)ncn1Cc1ccsc1 [Example 43a, C-[5-(2,4-Dichloro-phenyl)-3-thio-phen-3-yl-methyl-3H-imid-azol-4-yl]-methyl-amine] | 0.1
